Laboratory results from patent publication US20220339143A1, “TAK-925 FOR USE IN TREATING NARCOLEPSY” (Takeda Pharmaceutical Company Limited, priority 2019, published 2022).
Entries after “also recorded” stand apart in the source; their conditions may differ. Where two headings read alike, the source gives them in different places.

Assay: Single dose PK in patients with narcolepsy (Cohorts 5, 6 and 7), plasma
Assay type: in vivo, human
Conditions: for AUC(0-inf) / AUC(0-t) / Cmax / AUC / concentration at 9 h / Tmax / Vd / clearance: human, plasma, intravenous; for AUC: read-out: AUC24; for concentration at 9 h: read-out: Ceoi; for clearance: read-out: CL (converted)
Protocol: This study investigates (i) the safety and tolerability of Compound A (methyl (2R,3S)-3-((methylsulfonyl)amino)-2-(((cis-4-phenylcyclohexyl)oxy)methyl)piperidine-1-carboxylate) when a single dose given as a 9 hour continuous IV infusion is administered to healthy adults, healthy elderly subjects and patients with narcolepsy type 1 (NT1); (ii) the pharmacokinetics of Compound A when a single dose given as a 9 hour continuous IV infusion is administered to healthy adults, healthy elderly subjects and patients with narcolepsy type 1; and (iii) the pharmacodynamics (PD) effects of Compound A, primarily by evaluation of the sleep latency on MWT when a single dose given as a 9 hour continuous IV infusion is administered to patients with narcolepsy type 1.
In Part 2, NT1 patients received a single dose of Compound A or placebo administered as a continuous IV infusion over a 9-hour period during the day. A 40-minute Maintenance of Wakefulness Test (MWT) was conducted 4 times during the continuous IV infusion to assess effects on wakefulness in soporific conditions at 2, 4, 6 and 8 hours from start of infusion. Three cohorts of patients were enrolled (n=14 total).
Pharmacokinetics: Concentrations of Compound A in plasma, and CSF, and pharmacokinetics parameters.
On average, the time to reach the plateau appeared to be approximately 4 hours after the start of infusion. […] After switching off the IV infusion, Compound A plasma concentrations declined rapidly and in a biphasic manner with a mean terminal disposition phase t1/2z ranging approximately from 3.5 to 4.1 hours across the doses.

[1] = Cmpd A 5 mg, Mean, Cohort 5, 6, 7
[2] = Cmpd A 5 mg, Median, Cohort 5, 6, 7
[3] = Cmpd A 11.2 mg, Mean, Cohort 5, 6, 7
[4] = Cmpd A 11.2 mg, Median, Cohort 5, 6, 7
[5] = Cmpd A 44.8 mg, Mean, Cohort 5, 6, 7
[6] = Cmpd A 44.8 mg, Median, Cohort 5, 6, 7
[7] = 5 mg, Cmpd A 5 mg, Geo Mean, Cohort 5, 6, 7
[8] = 5 mg, Cmpd A 5 mg, Mean, Cohort 5, 6, 7
[9] = 5 mg, Cmpd A 5 mg, Median, Cohort 5, 6, 7
[10] = 11.2 mg, Cmpd A 11.2 mg, Geo Mean, Cohort 5, 6, 7
[11] = 11.2 mg, Cmpd A 11.2 mg, Mean, Cohort 5, 6, 7
[12] = 11.2 mg, Cmpd A 11.2 mg, Median, Cohort 5, 6, 7

Which results are given for `COC(=O)N1CCC[C@H](NS(C)(=O)=O)[C@@H]1CO[C@H]1CC[C@@H](c2ccccc2)CC1` [Compound A, methyl (2R,3S)-3-((methylsulfonyl)amino)-2-(((cis-4-phenylcyclohexyl)oxy)methyl)piperidine-1-carboxylate]?
AUCinf D [1]: 17.88 ng·h/mL/mg; CL [1]: 57.05 L/h; Cmax D [1]: 2.050 ng/mL/mg; t½z [1]: 3.465 h; AUCinf D [2]: 18.20 ng·h/mL/mg; Cmax D [2]: 2.000 ng/mL/mg; Vz [2]: 284.5 L; t½z [2]: 3.380 h; AUCinf D [3]: 17.95 ng·h/mL/mg; Cmax D [3]: 1.963 ng/mL/mg; Vss [3]: 114.1 L; Vz [3]: 316.8 L; t½z [3]: 3.923 h; AUCinf D [4]: 18.05 ng·h/mL/mg; Cmax D [4]: 1.990 ng/mL/mg; Vss [4]: 113.5 L; Vz [4]: 336.5 L; t½z [4]: 4.020 h; AUCinf D [5]: 21.45 ng·h/mL/mg; Cmax D [5]: 2.195 ng/mL/mg; t½z [5]: 4.130 h; AUCinf D [6]: 20.80 ng·h/mL/mg; Cmax D [6]: 2.170 ng/mL/mg; t½z [6]: 3.885 h; systemic exposures and clearance in NT1 patients vs healthy adults (IV administration): consistent with those observed in healthy adults; also recorded: comparable with those observed in healthy adults; dose proportionality of mean plasma systemic exposure (doses of 5 to 44.8 mg, NT1 patients): increased approximately dose proportionally; AUC(0-inf) [7]: 88.5 ng·h/mL; AUC(0-t) [7]: 86.2 ng·h/mL; Cmax [7]: 10.1 ng/mL; AUC [7]: 88 ng·h/mL; concentration at 9 h [7]: 9.65 ng/mL; AUC(0-inf) [8]: 89.3 ng·h/mL; AUC(0-t) [8]: 87.2 ng·h/mL; Cmax [8]: 10.2 ng/mL; Tmax [8]: 8 h; AUC [8]: 88.8 ng·h/mL; concentration at 9 h [8]: 9.71 ng/mL; Vd (5 mg, Cmpd A 5 mg, Mean, Cohort 5, 6, 7, read-out: Vss): 112 L; Vd (5 mg, Cmpd A 5 mg, Mean, Cohort 5, 6, 7, read-out: Vz): 282 L; AUC(0-inf) [9]: 91.1 ng·h/mL; AUC(0-t) [9]: 89.2 ng·h/mL; Cmax [9]: 9.99 ng/mL; Tmax [9]: 9 h; AUC [9]: 90.8 ng·h/mL; clearance [9]: 915 mL/min; concentration at 9 h [9]: 9.99 ng/mL; Vd (5 mg, Cmpd A 5 mg, Median, Cohort 5, 6, 7, read-out: Vss): 110 L; AUC(0-inf) [10]: 201 ng·h/mL; AUC(0-t) [10]: 199 ng·h/mL; Cmax [10]: 21.9 ng/mL; AUC [10]: 199 ng·h/mL; concentration at 9 h [10]: 21.2 ng/mL; AUC(0-inf) [11]: 201 ng·h/mL; AUC(0-t) [11]: 199 ng·h/mL; Cmax [11]: 22 ng/mL; Tmax [11]: 7.75 h; AUC [11]: 199 ng·h/mL; clearance [11]: 932 mL/min; concentration at 9 h [11]: 21.2 ng/mL; AUC(0-inf) [12]: 202 ng·h/mL; AUC(0-t) [12]: 200 ng·h/mL; Cmax [12]: 22.3 ng/mL; Tmax [12]: 9 h; AUC [12]: 200 ng·h/mL
